Kd data for 17 molecules are collected here from patent US11319299B2, “Substituted carboxamides as inhibitors of WDR5 protein-protein binding” (PROPELLON THERAPEUTICS INC., priority 2016, dated 2022).

In this assay the target is WDR5 (Homo sapiens (Human), UniProt P61964). The assay is described as follows: Surface Plasmon Resonance (SPR) assay, KD and residence time. The assay is classed as binding. To be noted: surface plasmon resonance (SPR) assay; read-out: WDR5 binding affinity (KD). For orientation: Surface plasmon resonance follows binding to a sensor surface in real time, without labels.
As for `CN(C)[C@@H]1CCN(c2cc(F)c(-c3ccc(N4CCOCC4)nc3)cc2NC(=O)c2c[nH]c(=O)cc2C(F)(F)F)C1` [Example 234, N-[4-fluoro-5-(6-morpholin-4-ylpyridin-3-yl)-2-[(3R)-3-(dimethylamino)pyrrolidin-1-yl]phenyl]-6-oxo-4-(trifluoromethyl)-1H-pyridine-3-carboxamide], the Kd came to 1.86 nM.
With `C[C@@H]1CN(c2cc(F)c(C3=CCN(C4COC4)CC3)cc2NC(=O)c2c[nH]c(=O)cc2C(F)(F)F)C[C@H](C)N1C` [Example 235, N-[4-fluoro-5-[1-(oxetan-3-yl)-3,6-dihydro-2H-pyridin-4-yl]-2-[(3R,5S)-3,4,5-trimethylpiperazin-1-yl]phenyl]-6-oxo-4-(trifluoromethyl)-1H-pyridine-3-carboxamide], the Kd was 0.943 nM.
As to `C[C@@H]1CN(c2cc(F)c(C3CCNCC3)cc2NC(=O)c2c[nH]c(=O)cc2C(F)(F)F)C[C@H](C)N1C` [Example 236, N-[4-fluoro-5-piperidin-4-yl-2-[(3R,5S)-3,4,5-trimethylpiperazin-1-yl]phenyl]-6-oxo-4-(trifluoromethyl)-1H-pyridine-3-carboxamide], the Kd was found to be 31.1 nM.
Then `CN(C)[C@@H]1CCN(c2cc(F)c(-c3ccc(O)nc3)cc2NC(=O)c2c[nH]c(=O)cc2C(F)(F)F)C1` [Example 237, N-[4-fluoro-5-(6-hydroxypyridin-3-yl)-2-[(3R)-3-(dimethylamino)pyrrolidin-1-yl]phenyl]-6-oxo-4-(trifluoromethyl)-1H-pyridine-3-carboxamide], with 9.33 nM; and `CN(C)[C@@H]1CCN(c2cc(F)c(-c3ccc(OCC4CC4)nc3)cc2NC(=O)c2c[nH]c(=O)cc2C(F)(F)F)C1` [Example 238, N-[5-[6-(cyclopropylmethoxy)pyridin-3-yl]-4-fluoro-2-[(3R)-3-(dimethylamino)pyrrolidin-1-yl]phenyl]-6-oxo-4-(trifluoromethyl)-1H-pyridine-3-carboxamide], with 5.11 nM; and `C[C@@H]1CN(c2cc(F)c(C3=CCN(C4CCN(C)CC4)CC3)cc2NC(=O)c2c[nH]c(=O)cc2C(F)(F)F)C[C@H](C)N1C` [Example 242, N-[4-fluoro-5-[1-(1-methylpiperidin-4-yl)-3,6-dihydro-2H-pyridin-4-yl]-2-[(3R,5S)-3,4,5-trimethylpiperazin-1-yl]phenyl]-6-oxo-4-(trifluoromethyl)-1H-pyridine-3-carboxamide], with 3.49 nM.
Take `C[C@@H]1CN(c2cc(F)c(C3=CCN(C(=O)C(C)(C)C)CC3)cc2NC(=O)c2c[nH]c(=O)cc2C(F)(F)F)C[C@H](C)N1C` [Example 243, N-[5-[1-(2,2-dimethylpropanoyl)-3,6-dihydro-2H-pyridin-4-yl]-4-fluoro-2-[(3R,5S)-3,4,5-trimethylpiperazin-1-yl]phenyl]-6-oxo-4-(trifluoromethyl)-1H-pyridine-3-carboxamide]: the Kd stood at 2.16 nM.
For `C[C@@H]1CN(c2cc(F)c(C3CCN(C(=O)C(C)(C)C)CC3)cc2NC(=O)c2c[nH]c(=O)cc2C(F)(F)F)C[C@H](C)N1C` [Example 244, N-[5-[1-(2,2-dimethylpropanoyl)piperidin-4-yl]-4-fluoro-2-[(3R,5S)-3,4,5-trimethylpiperazin-1-yl]phenyl]-6-oxo-4-(trifluoromethyl)-1H-pyridine-3-carboxamide], the Kd was determined as 1.97 nM.
Then `C[C@@H]1CN(c2ncc(-c3cc(NC(=O)c4cn(C)c(=O)cc4C(F)(F)F)c(N4C[C@@H](C)N(C)[C@@H](C)C4)cc3F)cn2)C[C@H](C)O1` [Example 246, N-[4-fluoro-5-[2-[(2R,6S)-2,6-dimethylmorpholin-4-yl]pyrimidin-5-yl]-2-[(3S,5R)-3,4,5-trimethylpiperazin-1-yl]phenyl]-1-methyl-6-oxo-4-(trifluoromethyl)pyridine-3-carboxamide], with 2.51 nM.
Take `C[C@@H]1CN(c2cc(F)c(C3=CCN(S(C)(=O)=O)C3)cc2NC(=O)c2c[nH]c(=O)cc2C(F)(F)F)C[C@H](C)N1C` [Example 249, N-[4-fluoro-5-(1-methylsulfonyl-2,5-dihydropyrrol-3-yl)-2-[(3R,5S)-3,4,5-trimethylpiperazin-1-yl]phenyl]-6-oxo-4-(trifluoromethyl)-1H-pyridine-3-carboxamide]: the Kd stood at 0.665 nM.
With `C[C@@H]1CN(c2cc(F)c(-c3ccc(OCC4CC4)nc3)cc2NC(=O)c2cc(Cl)cc(Cl)c2)C[C@H](C)N1C` [Example 250, 3,5-dichloro-N-[5-[6-(cyclopropylmethoxy)pyridin-3-yl]-4-fluoro-2-[(3R,5S)-3,4,5-trimethylpiperazin-1-yl]phenyl]benzamide] the figure was 76.9 nM; with `C[C@@H]1CN(c2cc(F)c(-c3ccc(OCC4CC4)nc3)cc2NC(=O)c2ccc(F)cc2Cl)C[C@H](C)N1C` [Example 251, 2-chloro-N-[5-[6-(cyclopropylmethoxy)pyridin-3-yl]-4-fluoro-2-[(3R,5S)-3,4,5-trimethylpiperazin-1-yl]phenyl]-4-fluorobenzamide], 15.6 nM; with `CC(=O)N1CC=C(c2cc(NC(=O)c3c[nH]c(=O)cc3C(F)(F)F)c(N3C[C@@H](C)N(C)[C@@H](C)C3)cc2F)CC1` [Example 252, N-[5-(1-acetyl-3,6-dihydro-2H-pyridin-4-yl)-4-fluoro-2-[(3R,5S)-3,4,5-trimethylpiperazin-1-yl]phenyl]-6-oxo-4-(trifluoromethyl)-H-pyridine-3-carboxamide], 2.79 nM.
With `CCOC(=O)N1CC=C(c2cc(NC(=O)c3c[nH]c(=O)cc3C(F)(F)F)c(N3C[C@@H](C)N(C)[C@@H](C)C3)cc2F)CC1` [Example 253, ethyl 4-[2-fluoro-5-[[6-oxo-4-(trifluoromethyl)-1H-pyridine-3-carbonyl]amino]-4-[(3R,5S)-3,4,5-trimethylpiperazin-1-yl]phenyl]-3,6-dihydro-2H-pyridine-1-carboxylate] the figure was 3.3 nM; with `CC(C)COC(=O)N1CC=C(c2cc(NC(=O)c3c[nH]c(=O)cc3C(F)(F)F)c(N3C[C@@H](C)N(C)[C@@H](C)C3)cc2F)CC1` [Example 254, 2-methylpropyl 4-[2-fluoro-5-[[6-oxo-4-(trifluoromethyl)-1H-pyridine-3-carbonyl]amino]-4-[(3R,5S)-3,4,5-trimethylpiperazin-1-yl]phenyl]-3,6-dihydro-2H-pyridine-1-carboxylate], 3.34 nM; with `C[C@@H]1CN(c2cc(F)c(C3=CCN(C(=O)CC(C)(C)C)CC3)cc2NC(=O)c2c[nH]c(=O)cc2C(F)(F)F)C[C@H](C)N1C` [Example 255, N-[5-[1-(3,3-dimethylbutanoyl)-3,6-dihydro-2H-pyridin-4-yl]-4-fluoro-2-[(3R,5S)-3,4,5-trimethylpiperazin-1-yl]phenyl]-6-oxo-4-(trifluoromethyl)-1H-pyridine-3-carboxamide], 1.98 nM.
Then `C[C@@H]1CN(c2cc(F)c(C3CCN(C(=O)CC(C)(C)C)CC3)cc2NC(=O)c2c[nH]c(=O)cc2C(F)(F)F)C[C@H](C)N1C` [Example 256, N-[5-[1-(3,3-dimethylbutanoyl)piperidin-4-yl]-4-fluoro-2-[(3R,5S)-3,4,5-trimethylpiperazin-1-yl]phenyl]-6-oxo-4-(trifluoromethyl)-1H-pyridine-3-carboxamide], with 11.8 nM.

Usually Kd stands for the free concentration of one partner at which half of the binding sites on the other are occupied at equilibrium, for simple one-to-one binding.
